Patent US20160213647A1, “COMPOSITIONS AND METHODS FOR INHIBITING VIRAL INFECTION” (priority 2015, published 2016)
Converted amounts (≈) assume the structure as drawn. Where two headings read alike, the source gives them in different places.

Legend:
[1] = test system: Human cytomegalovirus; test: microbe, parasite or virus in culture; format: cell-based; details: Human betaherpesvirus 5
[2] = test system: Vero
[3] = in vivo; cited from earlier work
[4] = test system: Vaccinia; test: microbe, parasite or virus in culture; format: cell-based; details: Orthopoxvirus vaccinia
[5] = test system: three JUNV strains; test: microbe, parasite or virus in culture; details: Mammarenavirus juninense, read-out: EC50 values, range depending on the virus strain and the host cell
[6] = test system: BK virus; test: microbe, parasite or virus in culture; format: cell-based; details: Betapolyomavirus hominis
[7] = test system: Norovirus; test: microbe, parasite or virus in culture; format: cell-based
[8] = test system: MA-104; test: Cytotoxicity (CC50) in the in vitro viral screen; format: cell-based; details: listed as Respiratory Syncytial Virus A2; neutral red
Text: (§1) The results of an exemplary in vitro screen of the activity of AR-12 against various viruses is summarized below.

[9] = Cytotoxicity (CC50) in the in vitro viral screen; format: cell-based; details: African green monkey, MA-104 cells; listed as Respiratory Syncytial Virus A2; visual
Text: as §1

[10] = test system: HIV-1 isolate A17; test: microbe, parasite or virus in culture; details: Human immunodeficiency virus 1, PBMC
[11] = test system: HIV-1 92HT599; test: microbe, parasite or virus in culture; details: Human immunodeficiency virus 1, PBMC
[12] = test system: Rabies Virus; test: microbe, parasite or virus in culture; format: cell-based; details: Lyssavirus rabies
[13] = test system: Varicella-zoster virus; test: microbe, parasite or virus in culture; format: cell-based; details: Human alphaherpesvirus 3
[14] = test system: JUNV strain Candid-1; test: microbe, parasite or virus in culture; details: Mammarenavirus juninense, Vero, 48 h
[15] = test system: DENV-2; test: Virus yield reduction assay by qRT-PCR in Vero cells; format: cell-based; details: Dengue virus, DENV2, Vero, 48 h, read-out: Antiviral Activity IC50
[16] = test system: JUNV strain XJCl3; test: microbe, parasite or virus in culture; details: Mammarenavirus juninense, A549, 48 h
[17] = test system: HIV-1 isolate MDR769; test: microbe, parasite or virus in culture; details: Human immunodeficiency virus 1, PBMC
[18] = test system: arenavirus Tacaribe (TCRV), strain TRLV11573; test: microbe, parasite or virus in culture; format: cell-based, Tacaribe virus; details: A549
[19] = test system: Junin virus strains Candid-1, XJC13 and IV4454; test: in vitro; details: African green monkey (Vero), human (A549)
[20] = test system: JUNV strain IV4454; test: microbe, parasite or virus in culture; details: Mammarenavirus juninense, A549, 48 h
[21] = test system: HIV-1 MDR 769; test: microbe, parasite or virus in culture; details: Human immunodeficiency virus 1, PBMC
[22] = test system: A/Ca/07/09 (H1N1); test: microbe, parasite or virus in culture; format: cell-based; details: Influenza A virus, H1N1, HEK-293T; read-out: EC50
[23] = test system: DENV-3; test: Virus yield reduction assay by qRT-PCR in Vero cells; format: cell-based; details: Dengue virus, DENV3, Vero, 48 h, read-out: Antiviral Activity IC50
[24] = in vitro; details: African green monkey, CC50 (Neutral Red)
[25] = test system: influenza A virus (IAV) strain PR8 (H1N1); format: cell-based
[26] = test system: arenavirus Tacaribe (TCRV), strain TRLV11573; test: microbe, parasite or virus in culture; format: cell-based, Tacaribe virus; details: Vero
[27] = test system: influenza A virus (IAV) strain PR8 (H1N1); format: cell-based; remark: listed apart in the source
[28] = test system: JUNV strain IV4454; test: microbe, parasite or virus in culture; details: Mammarenavirus juninense, Vero, 48 h
[29] = test system: HIV-1 91US001
[30] = test system: A/Udorn/72 (H3N2); test: microbe, parasite or virus in culture; format: cell-based; details: Influenza A virus, H3N2, HEK-293T; read-out: EC50
[31] = test system: JUNV strain Candid-1; test: microbe, parasite or virus in culture; details: Mammarenavirus juninense, A549, 48 h
[32] = test system: HIV-1 isolate MDR807; test: microbe, parasite or virus in culture; details: Human immunodeficiency virus 1, PBMC
[33] = test system: DENV-1; test: Virus yield reduction assay by qRT-PCR in Vero cells; format: cell-based; details: Dengue virus, DENV1, Vero, 48 h, read-out: Antiviral Activity IC50
[34] = test system: HIV-2 CDC 310319
[35] = test system: HIV-1 isolate 4736_4; test: microbe, parasite or virus in culture; details: Human immunodeficiency virus 1, PBMC
[36] = test system: CHIKV 899 wild-type; test: Chikungunya virus-induced cell death (CPE, MTS/PMS) assay in Vero A cells

Compound: NCC(=O)Nc1ccc(-n2nc(C(F)(F)F)cc2-c2ccc3c(ccc4ccccc43)c2)cc1 [AR-12, 2-amino-N-(4-(5-(phenanthren-2-yl)-3-(trifluoromethyl)-1H-pyrazol-1-yl)phenyl)acetamide]
- EC50 [1]: > 2.4 µM
- EC90 [1]: > 2.4 µM
- CC50 (neutral red) ([2]; listed as Pichinde Virus An 4763, neutral red): 2.8 µg/mL (≈ 6.08 µM)
- CC50 (visual) ([2]; listed as Pichinde Virus An 4763): 3.2 µg/mL (≈ 6.95 µM)
- CC50 (visual) ([2]; listed as Yellow Fever Virus 17D): 2.8 µg/mL (≈ 6.08 µM)
- accumulation in tissues [3]: appreciable accumulation in tissues
- blood brain barrier penetration [3]: rapid blood brain barrier penetration
- EC50 [4]: > 2.4 µM
- EC90 [4]: > 2.4 µM
- EC50 [5]: 0.15 to 0.55 µM
- EC50 [6]: > 2.4 µM
- EC90 [6]: > 2.4 µM
- EC50 [7]: 0.718 µM
- EC90 [7]: 8.1 µM
- CC50 (neutral red) [8]: 3.2 (visual), 3.2
- CC50 [9]: 3.2 µg/mL (≈ 6.95 µM)
- IC90 [10]: 0.914 µM
- IC90 ([10]; read-out: IC50): 6.64 µM
- IC50 [11]: 0.27 µM
- EC50 [12]: 2.61 µM
- EC50 [13]: 1.15 µM
- EC90 [13]: 1.68 µM
- EC50 [14]: < 0.15 µM
- IC50 [15]: 0.8 µM
- EC50 [16]: 0.55 ± 0.05 µM
- IC90 [17]: 0.848 µM
- IC90 ([17]; read-out: IC50): 3.82 µM
- EC50 [18]: 0.84 ± 0.02 µM
- selectivity ratio [19]: 35.1 to 129
- EC50 [20]: 0.55 ± 0.05 µM
- IC50 [21]: 0.31 µM
- EC50 [22]: 0.37 µM
- IC50 [23]: 0.6 µM
- CC50 [24]: 1.3 µg/mL (≈ 2.82 µM)
- viral infection (% infection) [25]: prevents viral infections
- EC50 [26]: 0.35 ± 0.03 µM
- viral protein production is reduced [27]: at least 50%
- EC50 [28]: 0.51 ± 0.05 µM
- IC50 [29]: 0.24 µM
- EC50 [30]: 0.33 µM
- EC50 [31]: 0.15 ± 0.02 µM
- IC90 [32]: 0.905 µM
- IC90 ([32]; read-out: IC50): 2.13 µM
- IC50 [33]: 0.64 µM
- IC50 [34]: 0.37 µM
- IC90 [35]: 0.762 µM
- IC90 ([35]; read-out: IC50): 2.25 µM
- selectivity index ([36]; CC50/EC50, wild-type ChikV): 5.8
- EC50 ([36]; Chikungunya virus, Vero, read-out: EC50 WT): 1.1 ± 0.5 µM
